According to PubChem BioAssay AID1996:
In brackets after ≈: the same amount, converted by molar mass.

Conditions: buffer; pH 7.4; 200.0 µM

Going from `CC1CCCN(c2nc(N(C)c3ccccc3)nc(N)c2[N+](=O)[O-])C1` (configuration not stated) to `Cl.c1ccc(C2CN3CCSC3=N2)cc1` (configuration not stated), the solubility kinetic rises from 4.5 µg/mL (≈ 13.1 µM) to greater than 36.1 µg/mL.

Going from `Cc1cc(F)ccc1NC(=O)Cn1c(C)csc1=O` to `O=C(CN1C(=O)NC(CCc2ccccc2)C1=O)Nc1ccc(F)c(F)c1F` (configuration not stated), the solubility kinetic falls from greater than 42 µg/mL to 4.5 µg/mL (≈ 11.5 µM).

Going from `Cc1ccc(/C(N)=N/OC(=O)c2ccc3ccccc3c2)cc1` to `Cc1cnc(C(=O)OCC(=O)c2cccc3ccccc23)cn1`, the solubility kinetic rises from 1 µg/mL (≈ 3.29 µM) to 36.1 µg/mL (≈ 118 µM) (36-fold).

Compared with `Cc1ccc(NC(=O)c2cc(=O)[nH]c3ccccc23)cc1C`, `COc1ccccc1NC(=O)c1ccc2[nH]c(C)c(C)c2c1` is higher in solubility kinetic: less than 0.3 µg/mL for the first, 2.1 µg/mL (≈ 7.13 µM) for the second.

Compared with `COc1ccc(CNC(=O)CSc2nc3cccnc3s2)cc1`, `COc1ccc(CNC(=O)COC(=O)Cc2ccc(Br)cc2)cc1` is 6.3-fold lower in solubility kinetic: 36.3 µg/mL (≈ 105 µM) for the first, 5.8 µg/mL (≈ 14.8 µM) for the second.

Going from `CC(C)Sc1ccc([N+](=O)[O-])cc1C(=O)Nc1ccncc1` to `O=C(Nc1nccs1)c1ccc([N+](=O)[O-])cc1Cl`, the solubility kinetic falls from 40.8 µg/mL (≈ 129 µM) to 3.8 µg/mL (≈ 13.4 µM) (11-fold).

Going from `COc1ccc2[nH]cc(CCN3C(=O)c4ccc(C(=O)O)cc4C3=O)c2c1` to `Cc1ccc(O)c(NC(=O)c2ccc3c(c2)C(=O)N(CC(C)C)C3=O)c1`, the solubility kinetic falls from greater than 54.7 µg/mL to less than 0.4 µg/mL.

Going from `NC(=O)CC[C@H](NC(=O)c1ccc(F)cc1)C(=O)OCC(=O)NCc1ccc2c(c1)OCO2` to `O=C1CCC(C(=O)NCc2ccc3c(c2)OCO3)N1` (configuration not stated), the solubility kinetic rises from 1.2 µg/mL (≈ 2.61 µM) to greater than 39.3 µg/mL.

`O=C(Nc1ccc2[nH]c(=O)[nH]c2c1)C(F)(F)F` and `Nc1nc(C(F)(F)F)cc(=O)[nH]1` are within 1.5-fold of each other in solubility kinetic: 23.9 µg/mL (≈ 97.5 µM) for the first, 22.8 µg/mL (≈ 127 µM) for the second.

Going from `Cl.Oc1ccccc1C1NCc2ccccc2-n2cccc21` (configuration not stated) to `O=C(Nc1ccccc1F)N1CCc2ccccc2C1`, the solubility kinetic rises from 32.2 µg/mL to greater than 40.5 µg/mL.

`C#CCN1c2ccccc2Sc2cccnc21` and `Oc1ccc(F)c2cccnc12` are within 1.5-fold of each other in solubility kinetic: 4.8 µg/mL (≈ 20.1 µM) for the first, 5 µg/mL (≈ 30.6 µM) for the second.

`CCC(C)(C(=O)NC1CCCC1)N(C)C(=O)c1ccccn1` (configuration not stated) and `CSc1ncccc1C(=O)OCC(=O)NC1CCCC1` cannot be ordered by solubility kinetic: greater than 45.5 µg/mL for the first, greater than 44.2 µg/mL for the second.

Going from `COc1cc(C(=O)NC(c2ccccc2)c2ccccc2)cc(OC)c1OC` to `Nc1cccc(P(=O)(c2ccccc2)c2ccccc2)c1`, the solubility kinetic rises from less than 0.8 µg/mL to greater than 44 µg/mL.

Going from `O=C(CSc1nc2ccccc2c(=O)n1-c1ccccc1)N1CCC1` to `COCCn1c(SCC(=O)NC(=O)NC2CCCCC2)nc2ccccc2c1=O`, the solubility kinetic falls from greater than 52.7 µg/mL to 4.6 µg/mL (≈ 11 µM).

Going from `CCOc1ccc(C(=O)N2CCN(c3ccccn3)CC2)cc1OCC` to `COC(=O)Cc1ccc(NC(=S)N2CCN(c3ccccn3)CC2)cc1`, the solubility kinetic falls from greater than 53.3 µg/mL to 5 µg/mL (≈ 13.5 µM).

Going from `Br.Oc1ccc(-c2cn3ccccc3n2)cc1` to `O=C(NCc1cccs1)c1cc(-c2ccc(O)cc2)on1`, the solubility kinetic falls from 36.5 µg/mL to 1.7 µg/mL (≈ 5.66 µM) (21-fold).

Compared with `Cc1ccnc(NC(=O)c2cccc(NC(=O)c3ccccc3C)c2)c1`, `O=C(Nc1ccc2ccccc2c1)c1cc(F)c(F)cc1Cl` is lower in solubility kinetic: 2.1 µg/mL (≈ 6.08 µM) for the first, less than 0.7 µg/mL for the second.

First: Cc1cc(C)n2nc(SCC(=O)NC3CCCCC3)nc2n1
Second: COc1ccc(C(=O)OCC(=O)NC2CCCC2)c(OC)c1
The solubility kinetic of the first is higher: greater than 47.9 µg/mL for the first, 44.8 µg/mL (≈ 146 µM) for the second.

Going from `CCn1cc(S(=O)(=O)NCCc2ccc(F)cc2)cn1` to `CCN(CC)S(=O)(=O)c1cccc(-c2cn3cccnc3n2)c1`, the solubility kinetic falls from greater than 44.6 µg/mL to 11.1 µg/mL (≈ 33.6 µM).

Going from `CC(=O)/C(C#N)=C1\NC(=O)C(Cc2ccc(C)c(Cl)c2)S1` (configuration not stated) to `Cc1ccc(Cl)cc1NC(=O)NCc1ccccn1`, the solubility kinetic falls from greater than 48.1 µg/mL to 36.5 µg/mL (≈ 132 µM).

Going from `Nc1ccccc1C(=O)NCCN1CCNC1=O` to `O=C1CN(C(=S)Nc2ccccc2Cl)CCN1`, the solubility kinetic rises from 14.2 µg/mL (≈ 57.2 µM) to greater than 40.5 µg/mL.

Going from `CC(=O)Nc1nc2cccc([N+](=O)[O-])c2s1` to `Cc1nc(NC(=O)c2ccncc2)sc1C(=O)N(C)C`, the solubility kinetic rises from 2.8 µg/mL (≈ 11.8 µM) to greater than 43.6 µg/mL.

Going from `COCC(=O)Nc1ccc(N2CCOCC2)c(S(=O)(=O)Nc2ccc(OC)cc2)c1` to `Cc1ccc(C(=O)Nc2ccc(C)c(S(=O)(=O)N3CCOCC3)c2)c(C)c1`, the solubility kinetic falls from greater than 65.3 µg/mL to 37.9 µg/mL (≈ 97.6 µM).

First: CCCCn1c(N)c(N(C)C(=O)c2c(C)nn(-c3ccccc3)c2C)c(=O)[nH]c1=O
Second: CCC(C)NC(=O)c1c(N)n(CCCOC)c2nc3ccccc3nc12 (configuration not stated)
The solubility kinetic of the first is higher: greater than 61.6 µg/mL for the first, 6.4 µg/mL (≈ 18 µM) for the second.

Going from `CC(OC(=O)c1ccccc1)C(=O)NCc1ccco1` (configuration not stated) to `CCOC(=O)c1ccc(NC(=O)CNC(=O)c2ccco2)cc1`, the solubility kinetic falls from greater than 41 µg/mL to 10.2 µg/mL (≈ 32.2 µM).

Going from `CCc1ccccc1OCCCN1CCCC1.O=C(O)C(=O)O` to `CCCNCC(=O)Nc1cccc(S(=O)(=O)NC2=NCCCCC2)c1.O=C(O)C(=O)O`, the solubility kinetic rises from 43.9 µg/mL to greater than 68.5 µg/mL.

Compared with `O=S(=O)(Oc1ccccc1)c1cccnc1`, `COc1ccc(S(=O)(=O)n2cccc2)cc1` is 7-fold lower in solubility kinetic: 29.4 µg/mL (≈ 125 µM) for the first, 4.2 µg/mL (≈ 17.7 µM) for the second.

First: Cc1ccc(Oc2ccc(OCC(=O)NC3CCS(=O)(=O)C3)cc2)cc1 (configuration not stated)
Second: COc1ccc2cc(C(=O)C3CCCN(Cc4cccc(C)n4)C3)ccc2c1 (configuration not stated)
The solubility kinetic of the first is 5-fold lower: 7.6 µg/mL (≈ 20.2 µM) for the first, 37.7 µg/mL (≈ 101 µM) for the second.

First: CN(C)[C@@H]1C(=O)C(C(N)=O)=C(O)[C@@]2(O)C(=O)C3=C(O)c4c(O)cccc4[C@@](C)(O)[C@H]3[C@H](O)[C@@H]12
Second: COc1cc(/C=C/C(=O)NC(=O)c2ccccc2O)ccc1O
The solubility kinetic of the first is lower: 47 µg/mL (≈ 102 µM) for the first, greater than 47 µg/mL for the second.

`O=C(NC1CC1)C1CCN(c2nc3ccccc3s2)CC1` and `Cc1csc(NC(=O)CCCC(=O)O)c1-c1nc2ccccc2s1` cannot be ordered by solubility kinetic: greater than 45.2 µg/mL for the first, greater than 54.1 µg/mL for the second.

`Nc1ccc(CCNc2ncnc3c2ncn3[C@@H]2O[C@H](CO)[C@@H](O)[C@H]2O)cc1` and `Cc1cc(NCCOCCO)n2c(nc3ccccc32)c1C#N` cannot be ordered by solubility kinetic: greater than 58 µg/mL for the first, greater than 46.6 µg/mL for the second.

`COC(=O)c1ccccc1NC(=O)CSc1nncn1C` and `COC(=O)CCC(=O)NNC(=O)Cc1ccccc1` cannot be ordered by solubility kinetic: greater than 46 µg/mL for the first, greater than 39.6 µg/mL for the second.

`CC(=O)OC(CC(=O)O)C[N+](C)(C)C.[Cl-]` (configuration not stated) and `CC(=O)c1c(C)[nH]c(C(=O)NCc2ccccc2F)c1C` cannot be ordered by solubility kinetic: greater than 36 µg/mL for the first, 41.6 µg/mL (≈ 144 µM) for the second.

`CCN(CC)C(=O)CSc1nnc([C@@H](N)C(C)C)o1.Cl` and `CCC(C)NC(=O)c1ccccc1SC` (configuration not stated) cannot be ordered by solubility kinetic: greater than 48.4 µg/mL for the first, greater than 33.5 µg/mL for the second.

Compared with `O=C(NC(=S)Nc1cccc2ncccc12)c1cccs1`, `COc1ccc(NC(=S)NC(=O)c2cccnc2)cc1` is 9.1-fold higher in solubility kinetic: 1.7 µg/mL (≈ 5.42 µM) for the first, 15.5 µg/mL (≈ 53.9 µM) for the second.

Going from `Cc1cccc(OC(C)C(=O)N2CCc3ccccc3C2)c1` (configuration not stated) to `O=C(Nc1ccccc1)Nc1ccc2c(c1)CCC2`, the solubility kinetic falls from 36 µg/mL (≈ 122 µM) to 0.4 µg/mL (≈ 1.59 µM) (90-fold).

`CC(C)(C)NC(=S)NCC1CC1` and `CC(C)(C)c1ccc(/C=C(\C#N)C(=O)NCCN2CCOCC2)cc1` cannot be ordered by solubility kinetic: greater than 27.9 µg/mL for the first, 30.9 µg/mL (≈ 90.5 µM) for the second.

Going from `Cc1nc2ccc(Br)cc2c(-c2ccccc2)c1C(=O)O` to `CN(Cc1cccs1)c1nc(-c2cccnc2)nc2ccccc12`, the solubility kinetic falls from greater than 51.3 µg/mL to 3 µg/mL (≈ 9.02 µM).

Compared with `Cc1ccccc1NC(=S)N(Cc1ccccc1)Cc1cccnc1`, `O=C(O)c1ccc(CNC(=O)c2ccc3c(c2)C(=O)N(Cc2cccnc2)C3=O)cc1` is higher in solubility kinetic: 43.9 µg/mL (≈ 126 µM) for the first, greater than 62.3 µg/mL for the second.

`O=C(c1cccnc1)c1ncc(C(F)(F)F)cc1Cl` and `O=C(Nc1ccncc1Cl)c1ccncc1` cannot be ordered by solubility kinetic: 35.7 µg/mL (≈ 125 µM) for the first, greater than 35 µg/mL for the second.

First: Cc1cccc(N2CN=c3s/c(=C\c4ccccn4)c(=O)n3C2)c1
Second: Cc1cc(NC(=O)CN2CCN(c3cccc(Cl)c3)CC2)no1
The solubility kinetic of the first is 8.6-fold lower: 5.3 µg/mL (≈ 15.8 µM) for the first, 45.5 µg/mL (≈ 136 µM) for the second.

`CC(=O)Nc1cccc2c1C(=O)N(c1ccccc1OC(C)=O)C2=O` and `O=C(CN1C(=O)c2ccccc2C1=O)Nc1cc([N+](=O)[O-])ccc1O` cannot be ordered by solubility kinetic: greater than 50.7 µg/mL for the first, greater than 51.2 µg/mL for the second.

Compared with `Cc1ccnc2nc(C(=O)OCC(=O)Nc3ccc4c(c3)OCCO4)nn12`, `CCOc1ccc2oc(C(=O)Nc3nccs3)c(C)c2c1` is lower in solubility kinetic: greater than 55.4 µg/mL for the first, 2.2 µg/mL (≈ 7.28 µM) for the second.

`COCCOn1c(SCCOC)nc2ccccc2c1=O` and `COc1cccc(/C=N/NC(=O)CNC(=O)COc2ccccc2)c1O` cannot be ordered by solubility kinetic: greater than 46.6 µg/mL for the first, greater than 53.6 µg/mL for the second.

Going from `CN(Cc1nc(-c2cccc(Cl)c2)no1)C1CCOCC1` to `O=C1OCCC1Sc1nnc(-c2ccc3c(c2)OCO3)o1` (configuration not stated), the solubility kinetic rises from 36.9 µg/mL (≈ 120 µM) to greater than 45.9 µg/mL.

Compared with `Cl.O=C(/C=C/c1cccc(F)c1)NCCCn1ccnc1`, `O=C(CCl)Nc1cccc(Oc2cnccn2)c1` is lower in solubility kinetic: greater than 46.5 µg/mL for the first, 39.4 µg/mL (≈ 149 µM) for the second.

`CCN(C(=O)/C=C/c1ccccc1)C1CCCCC1` and `CC(=O)Nc1ccc(N2CCN(Cc3ccccc3)CC2)cc1` cannot be ordered by solubility kinetic: greater than 38.6 µg/mL for the first, 43.5 µg/mL (≈ 141 µM) for the second.

Going from `CC1CC2(CCCC2)Nc2ccc(F)cc21.Cl` (configuration not stated) to `N=C1C=CC=C2C1=NC1(CCCCC1)N2O`, the solubility kinetic rises from 0.7 µg/mL to greater than 32.6 µg/mL.

Going from `Cl.O=C(c1cccc(S(=O)(=O)N2CCc3ccccc32)c1)N1CCN(CCO)CC1` to `Cc1ccc(NC(=O)CCS(=O)(=O)c2cccc3nonc23)cc1`, the solubility kinetic falls from greater than 67.8 µg/mL to 18.1 µg/mL (≈ 52.4 µM).

Compared with `N#Cc1cc([N+](=O)[O-])ccc1NC(=O)CSc1n[nH]c(=O)[nH]c1=O`, `CC(C)C(=O)Nc1ccc2c(c1)Cc1cc(NC(=O)C(C)C)ccc1-2` is lower in solubility kinetic: greater than 52.2 µg/mL for the first, less than 0.4 µg/mL for the second.

`Cn1cc([N+](=O)[O-])c(C(=O)N2CCCCCC2)n1` and `COc1ccc(-c2cncnc2-c2ccc(OC)cc2O)cc1` cannot be ordered by solubility kinetic: greater than 37.8 µg/mL for the first, 38.6 µg/mL (≈ 125 µM) for the second.
